Source: patent US20100003217A1, “Compounds and Pharmaceutical Compositions for the Treatment of Viral Infections” (priority 2008, published 2010)

Legend:
[1] = system: HCV genotype 1b replicon (GS4.1 cells); assay: HCV replicon assay (NS4A ELISA); assay type: cell-based, hepatitis C virus; conditions: 3 days
Description: The biological activity of Compound 1, diastereomer 1 and diastereomer 2 was measured by monitoring expression of the NS4A protein by enzyme-linked immunosorbent assay (ELISA) and by luciferase assay as described below:
The HCV replicon assay measures the ability of a test compound to inhibit HCV replication in cell culture after 3 days of treatment in a human hepatoma cell line (Huh-7) bearing the HCV genotype 1b replicon (GS4.1 cells). The inhibition of HCV replication was measured by quantification of viral NS4A protein using an enzyme-linked immunosorbent assay (ELISA). […] Additionally, the replicon contains the neomycin phosphotransferase gene under the control of the HCV promoter (Source: Dr. Christoph Seeger, Fox Chase Cancer Center, Philadelphia, Pa.).
The NS4A ELISA assay is summarized as follows. Ninety-six-well tissue culture plates were seeded with GS4.1 cells. Antiviral compound solutions were made up freshly in medium as 2×-concentrated stocks. Eight additional 3-fold drug dilutions were prepared from these stocks in medium for a total of 9 dilutions. At least four hours after GS4.1 cells were seeded, drug treatment was initiated by adding one volume of each 2× concentrated drug dilution to one volume of cells/medium in the tissue culture plates. Cells were then incubated for 3 days at 37° C./5% CO2.
The media/compound was then removed from the plates and cells were fixed with acetone:methanol, washed three times with a wash solution, and then blocked for 1 hour with 10% fetal bovine serum in a balanced salt solution. Cells were washed three times and incubated with an anti-hepatitis C NS4A monoclonal antibody (Virogen Corp.) for 2 hours at 37° C. […] The reaction was stopped with diluted sulfuric acid (Mallinckrodt Chemicals) and absorbance measured on a Victor^3V 1420 multilabel counter (Perkin Elmer). EC50 values were calculated from dose response curves from the resulting best-fit equations determined by Microsoft Excel and XLfit 4.1 software.

Zluc cells = assay: Cytotoxicity assay (MTS), Zluc cells; assay type: cell-based, human
Description: (§1) The cytotoxicity assay measures the viability of cells after treatment with a test compound for 3 days in either GS4.1 cells or Zluc cells. […] The cytotoxicity assay is summarized as follows. Ninety-six-well tissue culture plates were seeded with GS4.1 or Zluc cells. Antiviral compound solutions were made up freshly in medium as 2×-concentrated stocks. Eight additional 3-fold drug dilutions were prepared from these stocks in medium for a total of 9 dilutions. At least four hours after the cells were seeded, drug treatment was initiated by adding one volume of each 2×-concentrated drug dilution to one volume of cells/medium in the tissue culture plates. Cells were then incubated for 3 days at 37° C./5% CO2. After 3 days of treatment, the CellTiter 96® Aqueous One Solution cell proliferation assay (Promega) was performed by adding the MTS solution to each well. The plates were then incubated at 37° C./5% CO2 for 3.5 hours. Plates were then read in a Victor^3V 1420 multilabel counter (Perkin Elmer) and CC50 concentrations were determined using Microsoft Excel and XLfit 4.1 software.

GS4.1 cells [2] = assay: Cytotoxicity assay (MTS), GS4.1 cells; assay type: cell-based, human; conditions: 3 days (NS4A-ELISA Assay)
Description: as §1

[3] = system: HCV genotype 1b replicon (Zluc cells); assay: HCV luciferase replicon assay; assay type: cell-based, hepatitis C virus; conditions: 3 days
Description: The HCV luciferase replicon assay measures the ability of a test compound to inhibit HCV replication in cell culture after 3 days of treatment in a human hepatoma cell line (Huh-7) bearing the HCV genotype 1b replicon and a luciferase-neomycin phosphotransferase fusion gene. The inhibition of HCV replication was measured by quantification of luciferase protein expression. The HCV luciferase replicon was constructed by fusing a luciferase gene to the amino terminus of the neomycin phosphotransferase gene of the ZS11 HCV replicon. The ZS11 HCV replicon (Zhu Q, Guo J-T, and Seeger C, 2003) is derived from the SP1 replicon, but contains three cell culture-adapted mutations: E1202G (NS3), S22041 (NS5A), and D2254E (NS5A). These mutations allow for efficient in vitro replication. The luciferase reporter gene was amplified from the pGL4.13[luc2/SV40] vector (Promega Corp.). The replicon resulting from the luciferase-neomycin fusion (ZS11-luc) was stably-transfected into Huh-7 cells, yielding the Zluc cell line.
The luciferase replicon assay is summarized as follows: Solid white 96-well tissue culture plates (BD Falcon) were seeded with Zluc cells. Antiviral compound solutions were made up freshly in medium as 2×-concentrated stocks. Eight additional 3-fold drug dilutions were prepared from these stocks in medium for a total of 9 dilutions. At least four hours after Zluc cells were seeded, drug treatment was initiated by adding one volume of each 2×-concentrated drug dilution to one volume of cells/medium in the tissue culture plates. Cells were then incubated for 3 days at 37° C./5% CO2.
The media/compound was then removed from the plates and the ONE-glo Luciferase assay reagent (Promega) was added to each well. The assay plates were shaken for 3 minutes at room temperature and luciferase activity for each well was measured with a 1 sec read time on the Victor^3V multilabel counter using a 700 nm cut-off filter (Perkin Elmer). EC50 values were calculated from dose response curves from the resulting best-fit equations determined by Microsoft Excel and XLfit 4.1 software.

GS4.1 cells [4] = assay: Cytotoxicity of Compound 1 and RBV on GS4.1 cells using MTS assay (combination study); conditions: three days, 0.6× to 1.5× EC50, alone or in combination
Description: The readout of the assay was measured by the bioreduction of the yellow MTS tetrazolium compound to a purple formazan product. This conversion is mediated by NADPH or NADH in metabolically active cells and is therefore directly proportional to the number of live cells in a culture. Plates were setup as described above.
Cells were plated and treated with inhibitors using the drug matrix described above.
After three days of drug treatment, 20 μL of MTS was added to each well, and then plates were incubated at 37° C./5% CO2.

[5] = Cytotoxicity (MTS assay), 184R-A cells; assay type: cell-based; conditions: human, 184R-A cells (S282T), 184R-A (S282T), N = 3
Description: (§2) Cells were plated and treated with inhibitors as described above.

[6] = Cytotoxicity (MTS assay), GS4.1 cells, Example 18; assay type: cell-based, human; conditions: human, GS4.1 cells (wild-type); GS4.1 (wild-type), MTS assay, N = 3
Description: as §2

GS4.1 cells [7] = assay: Cytotoxicity (MTS assay), GS4.1 cells, Example 18; assay type: cell-based, human; conditions: wild-type or S282T replicon cells treated with up to 100 μM
Description: as §2

[8] = system: wild-type HCV replicon (GS4.1 cells); assay: microbe, parasite or virus in culture; conditions: Hepatitis C virus
Description: (§3) 1. […] Huh-7 cells were seeded into column 1 of each plate at a similar density.
(§4) 2. […] Eight additional 3-fold serial dilutions of each compound were prepared from the 2× stock in assay medium. Final drug concentrations ranged from 100 to 0.015 μM.
(§5) 3. […] This setup was run in duplicate in each 96-well plate.
(§6) 4. Cells were incubated with inhibitors for three days at 37° C./5% CO2.
(§7) 1. After three days of drug treatment, media was removed from the plates via gentle tapping and the cells were fixed to the plates with 100 μL/well of 1:1 acetone:methanol.
(§8) 2. After one minute of incubation at room temperature, plates were washed three times with 100 μL/well of ELISA wash solution and then blocked with 150 μL/well of 10% FBS-TNE.
(§9) 3. After a one hour incubation at room temperature, plates were washed three times with 100 μL/well of ELISA wash solution, and then 100 μL/well of mouse anti-hepatitis C […] mAb (1 mg/mL stock diluted 1:1,500 in 10% FBS-TNE) was added.
(§10) 4. Following 2 hours of incubation at 37° C., plates were washed three times with 100 μL/well of ELISA wash solution, and then 100 μL/well of HRP-goat anti-mouse antibody (diluted 1:4,000 in 10% FBS-TNE) was added.
(§11) 4. After a one hour incubation period at 37° C., each plate was washed three times with 100 μL/well of ELISA wash solution. Color development was then initiated with 100 μL/well of OPD solution.
(§12) 5. After a 30 minute incubation period in the dark at room temperature, reactions were stopped by adding 100 μL of 2NH2SO4 to each well.
(§13) 6. The absorbance was measured at 490 nm on a Victor^3 V 1420 multilabel counter (Perkin Elmer). The percent inhibition of HCV replicon replication was calculated for each drug using an average of the duplicate wells.

[9] = system: S282T HCV replicon (184R-D2 cells); assay: microbe, parasite or virus in culture; conditions: Hepatitis C virus
Description: as §3, §4, §5, §6, §7, §8, §9, §10, §11, §12, §13

[10] = system: S282T HCV replicon (184R-A cells); assay: microbe, parasite or virus in culture; conditions: Hepatitis C virus
Description: 3. The 184R-A cell line was derived by culturing wild-type replicon cells in the presence of 1 to 5 μM of Compound 1 for >100 days.
as §3, §4, §5, §6, §7, §8, §9, §10, §11, §12, §13

[11] = system: HCV genotype 1b replicon (GS4.1 cells); assay: In vitro combination of Compound 1 and ribavirin on HCV replicon (NS4A ELISA; MacSynergy II, CombiTool, CalcuSyn); assay type: cell-based; conditions: Hepatitis C virus, 72 h, single-drug titration experiments, three days
Description: This setup was run in duplicate in each 96-well plate.
Cells were incubated with inhibitors for three days at 37° C./5% CO2.
After three days of drug treatment, media was removed from the plates via gentle tapping and the cells were fixed to the plates with 100 μL/well of 1:1 acetone:methanol.
After one minute of incubation at room temperature, plates were washed three times with 100 μL/well of ELISA wash solution and then blocked with 150 μL/well of 10% FBS-TNE.
After a one hour incubation period at 37° C., each plate was washed three times with 100 μL/well of ELISA wash solution. Color development was then initiated with 100 μL/well of OPD solution.
After a 30 minute incubation period in the dark at room temperature, reactions were stopped by adding 100 μL of 2NH2SO4 to each well.
The absorbance was measured at 490 nm on a Victor^3 V 1420 multilabel counter (Perkin Elmer).

[12] = Cytotoxicity (MTS assay), 184R-D2 cells; assay type: cell-based; conditions: human, 184R-D2 cells (S282T), 184R-D2 (S282T), N = 3
Description: as §2

| Compound | EC50 [1] [µM] | CC50 (Zluc cells) [µM] | CC50 (GS4.1 cells [2]) [µM] | EC50 [3] [µM] | in vitro cytotoxicity (MTS) (GS4.1 cells [4]) | CC50 at 3 days [5] [µM] | CC50 at 3 days [6] [µM] | in vitro cytotoxicity (MTS) (GS4.1 cells [7]) | EC50 [8] [µM] | EC50 [9] [µM] | EC50 [10] [µM] | EC50 [11] [µM] | CC50 at 3 days [12] [µM] |
| --- | --- | --- | --- | --- | --- | --- | --- | --- | --- | --- | --- | --- | --- |
| CC(C)(CO)C(=O)SCCOP(=O)(NCc1ccccc1)OC[C@H]1O[C@@H](n2cnc3c(=O)[nH]c(N)nc32)[C@](C)(O)[C@@H]1O (single isomer, unassigned; diastereomer 2) [Diastereomer 2] | 0.244 ± 0.098 | > 100 | > 100 | 0.0568 ± 0.0006 |  |  |  |  |  |  |  |  |  |
| NC(=O)c1ncn([C@@H]2O[C@H](CO)[C@@H](O)[C@H]2O)n1 [RBV, ribavirin, reference compound] |  |  |  |  | no evidence of in vitro cytotoxicity | > 100 | > 100 | no evidence of in vitro cytotoxicity | 38 ± 2.8 | 17 ± 3.5 | 12.3 ± 1.9 | 21.8 ± 3.6 | > 100 |
